For 17 molecules, IC50 and Activity results are on record in ChEMBL document CHEMBL4342436, “Artemisia: a promising plant for the treatment of cancer” (Bioorg Med Chem, 2020).

In brackets after ≈: the same amount, converted by molar mass.

The test system of assay [1] is A549. Put plainly: Cytotoxicity against human A549 cells by SRB assay. The assay is classed as functional, cell-based. Background: Sulforhodamine B stains cellular protein and so reports cell mass.
Assay [2] concerns SK-OV-3. Put plainly: Cytotoxicity against human SKOV3 cells by SRB assay. The assay is classed as functional, cell-based.
Assay [3] deals with HCT-15. The experiment in a line: Cytotoxicity against human HCT15 cells by SRB assay. It is filed as functional, cell-based.
Assay [4] concerns XF498. Put plainly: Cytotoxicity against human XF498 cells by SRB assay. It is filed as functional, cell-based.
Assay [5] has as its system SK-MEL-2. Put plainly: Cytotoxicity against human SK-MEL-2 cells by SRB assay. The assay is classed as functional, cell-based.
The test system of assay [6] is HepG2. Put plainly: Cytotoxicity against human HepG2 cells after 72 hrs by MTT assay. It is filed as functional, cell-based. The conditions noted are these: HepG2, 72 h.
The subject of assay [7] is SH-SY5Y. The experiment in a line: Cytotoxicity against human SH-SY5Y cells after 72 hrs by MTT assay. It is filed as functional, cell-based. (Tetrazolium assays rely on reduction of a dye to a coloured formazan, in cell work by metabolically active cells.)
A short description of assay [8]: Cytotoxicity against mouse S17 cells after 72 hrs by MTT assay. The assay is classed as functional, cell-based. Particulars: S17, 72 h.
Assay [9] is described as follows: Antioxidant activity assessed as ONOO scavenging activity. The assay is classed as functional.
Assay [10] has as its system A2780. Put plainly: Cytotoxicity against human A2780 cells after 72 hrs by MTT assay. The conditions noted are these: A2780, 72 h. It is filed as functional, cell-based.
For assay [11], the system named is A-431. The experiment in a line: Cytotoxicity against human A431 cells after 72 hrs by MTT assay. It is filed as functional, cell-based. Particulars: A-431, 72 h.
The test system of assay [12] is MCF7. Put plainly: Cytotoxicity against human MCF7 cells after 72 hrs by MTT assay. Particulars: MCF7, 72 h. It is filed as functional, cell-based.
Assay [13] concerns HeLa. The experiment in a line: Cytotoxicity against human HeLa cells after 72 hrs by MTT assay. It is filed as functional, cell-based.
Assay [14] relates to MCF7. Put plainly: Cytotoxicity against human MCF7 cells assessed as reduction in cell viability incubated for 48 hrs by MTT assay. The assay is classed as functional, cell-based. Particulars: MCF7, 48 h.
Assay [15] relates to HeLa. The experiment in a line: Cytotoxicity against human HeLa cells assessed as reduction in cell viability incubated for 48 hrs by MTT assay. It is filed as functional, cell-based.
Assay [16] relates to HeLa. Put plainly: Cytotoxicity against human HeLa cells assessed as reduction in cell viability after 24 hrs by MTT assay. The assay is classed as functional, cell-based.
In assay [17] the test system is MIA PaCa-2. Put plainly: Antiproliferative activity against human MIAPaCa2 cells assessed as reduction in cell viability after 48 hrs by MTT assay. Particulars: MIA PaCa-2, 48 h. The assay is classed as functional, cell-based.
The subject of assay [18] is BHY. Put plainly: Antiproliferative activity against human BHY cells assessed as reduction in cell viability after 48 hrs by MTT assay. The assay is classed as functional, cell-based.
In assay [19] the test system is A549. The experiment in a line: Antiproliferative activity against human A549 cells assessed as reduction in cell viability after 48 hrs by MTT assay. The assay is classed as functional, cell-based. Particulars: A549, 48 h.
Assay [20] concerns COLO 205. The experiment in a line: Antiproliferative activity against human COLO205 cells assessed as reduction in cell viability after 48 hrs by MTT assay. The assay is classed as functional, cell-based. Particulars: COLO 205, 48 h.
In assay [21] the test system is MCF7. The experiment in a line: Antiproliferative activity against human MCF7 cells assessed as reduction in cell viability after 48 hrs by MTT assay. Particulars: MCF7, 48 h. It is filed as functional, cell-based.
The nature of assay [22]: Cytotoxicity against human YD-10B cells assessed as reduction in cell viability after 48 hr by MTT asssay. The assay is classed as functional, cell-based.
Assay [23] concerns HL-60. The experiment in a line: Antiproliferative activity against human HL60 cells assessed as reduction in cell viability after 3 days by XTT assay. It is filed as functional, cell-based. The conditions noted are these: HL-60, 72 h.
The test system of assay [24] is PANC-1. The experiment in a line: Antitumour activity against human PANC1 cells xenografted in ip dosed nude BALB/c mouse assessed as tumor weight for 18 days. The assay is classed as functional. Background: Xenograft models place foreign cells or tissue in a host animal.
In assay [25] the test system is PANC-1. The experiment in a line: Cytotoxicity against human PANC1 cells assessed as cell viability after 24 hrs by MTT assay relative to control. It is filed as functional.
Assay [26] deals with CFPAC-1. The experiment in a line: Cytotoxicity against human CFPAC-1 cells assessed as cell viability after 24 hrs by MTT assay relative to control. The assay is classed as functional.
The subject of assay [27] is CFPAC-1. Put plainly: Antitumour activity against human CFPAC-1 cells xenografted in ip dosed nude BALB/c mouse assessed as tumor weight for 18 days. The assay is classed as functional.

As for `C=C1C(=O)O[C@@H]2C[C@@]3(C)C=CC(=O)C(C)=C3C[C@H]12`, the concentration for half-maximal inhibition (IC50) in assay [1], in assay [2], in [3], in [4] and in assay [5] was 0.4 to 26.8 µg/mL (≈ 1.64 to 110 µM) in each case.

Take `COc1ccc(-c2cc(=O)c3c(O)cc(O)cc3o2)cc1` [ACACETIN]: the IC50 in [1], in [2], in assay [3], in assay [4] and in assay [5] was 0.4 to 26.8 µg/mL (≈ 1.41 to 94.3 µM) each time.

Turning to `COc1ccc(-c2oc3cc(OC)c(OC)c(O)c3c(=O)c2OC)cc1OC` [ARTEMETIN], the concentration for half-maximal inhibition (IC50) in assay [6], in [7] and in [8] was 229 to 233 µM throughout.

Turning to `O=C(/C=C/c1ccc(O)c(O)c1)O[C@@H]1C[C@](O)(C(=O)O)C[C@@H](O)[C@H]1O` [CHLOROGENIC ACID], the IC50 (commonly the concentration that inhibits the measured activity by half) in assay [9] amounted to 0.52 µM.

For the molecule `COc1cc(-c2cc(=O)c3c(O)c(OC)c(OC)cc3o2)ccc1O` [CIRSILENEOL], the concentration for half-maximal inhibition (IC50) in assay [10], in assay [11], in [12] and in assay [13] was 33 to 75 µg/mL (≈ 95.8 to 218 µM) throughout.

With `CC1=CC(=O)C2=C(C)CC[C@@H]3[C@H](OC(=O)[C@H]3C)[C@@H]12` [DESACETOXYMATRICARIN], the IC50 in assay [1], in [2], in [3], in assay [4] and in assay [5] was 0.4 to 26.8 µg/mL (≈ 1.62 to 109 µM) in each case.

Consider `COc1ccc(-c2cc(=O)c3c(O)c(OC)c(OC)cc3o2)cc1O` [EUPATORIN], for which the results for the half-maximal inhibitory concentration (IC50) in [14] and in [15] were 10.3 to 91.9 µM and 8.1 to 63.2 µM, respectively.

With `COc1cc(O)c2c(=O)cc(-c3ccc(O)cc3)oc2c1` [GENKWANIN], the half-inhibitory concentration (IC50) in assay [1] is 0.4 to 26.8 µg/mL (≈ 1.41 to 94.3 µM); in [2] it was 0.4 to 26.8 µg/mL (≈ 1.41 to 94.3 µM); in [3] it was 0.4 to 26.8 µg/mL (≈ 1.41 to 94.3 µM); in [14], 10.3 to 91.9 µM; in [15], 8.1 to 63.2 µM; in [9] it was 1.01 µM. In addition, the IC50 in assay [4] and in assay [5] was 0.4 to 26.8 µg/mL (≈ 1.41 to 94.3 µM) throughout.

Consider `C=C1C(=O)O[C@@H]2C[C@@]3(C)CCCC(=C)[C@@H]3C[C@H]12` [ISOALANTOLACTONE], for which the half-inhibitory concentration (IC50) in assay [16] stood at 8.15 µM.

With `COc1cc(-c2oc3cc(O)cc(O)c3c(=O)c2O)ccc1O` [ISORHAMNETIN], the IC50 was in the range of 10.3 to 91.9 µM in [14] and 8.1 to 63.2 µM in assay [15].

`COc1cc(O)c2c(=O)c(OC)c(-c3ccc(O)cc3)oc2c1` [KUMATAKENIN]: the concentration for half-maximal inhibition (IC50) in assay [14] was 10.3 to 91.9 µM; in assay [15] it was 8.1 to 63.2 µM.

As for `C=C(C)[C@@H]1CC[C@]2(C)CC[C@]3(C)[C@H](CC[C@@H]4[C@@]5(C)CC[C@H](O)C(C)(C)[C@@H]5CC[C@]43C)[C@@H]12` [LUPEOL], the IC50 in [17], in assay [18], in assay [19], in assay [20] and in assay [21] was 25.2 to 88.1 µM in each case.

For the molecule `CC(=O)O[C@H]1C(=O)[C@@]2(C)[C@H]([C@H](OC(=O)c3ccccc3)[C@]3(O)C[C@H](OC(=O)[C@H](O)[C@@H](NC(=O)c4ccccc4)c4ccccc4)C(C)=C1C3(C)C)[C@]1(OC(C)=O)CO[C@@H]1C[C@@H]2O` [PACLITAXEL], the IC50 in [22] was 13.1 µM.

In the case of `COc1cc2ccc(=O)oc2cc1OC` [SCOPARONE], the IC50 in [23] was 1.1 to 40.7 µg/mL (≈ 5.33 to 197 µM).

With `COc1cc2ccc(=O)oc2cc1O` [SCOPOLETIN], in [9], the half-inhibitory concentration (IC50) turned out to be 1.03 µM.

For the molecule `c1cc2c(cc1[C@H]1OC[C@H]3[C@@H]1CO[C@@H]3c1ccc3c(c1)OCO3)OCO2` [SESAMIN], the half-inhibitory concentration (IC50) in assay [6], in assay [7] and in assay [8] was 229 to 233 µM each time.

With `CC(C)[C@]12O[C@H]1[C@@H]1O[C@]13[C@]1(O[C@H]1C[C@H]1C4=C(CC[C@@]13C)C(=O)OC4)[C@@H]2O` [TRIPTOLIDE], the Activity in assay [24] is less than 0.4 g; in assay [25] it was less than 10%; in assay [26] it was less than 10%; in assay [27] it was less than 0.4 g.
